According to patent publication US20120121591A1 (priority 2009, published 2012):

Key:
Type in all cases: cell-based
[1] = tested on: IFN-g secretion from T cells in human whole blood; details: read-out: WB (IFNg) IC50 (nM, Avg)
[2] = target: hKv1.3 (Homo sapiens, UniProt P22001); assay: cell-based; details: Kv1.3 (IWQ) IC50 (nM, Avg)
[3] = tested on: IL-2 secretion from T cells in human whole blood; details: read-out: WB (IL-2) IC50 (nM, Avg)

Chain of hKv1.3 (P22001 whole entry): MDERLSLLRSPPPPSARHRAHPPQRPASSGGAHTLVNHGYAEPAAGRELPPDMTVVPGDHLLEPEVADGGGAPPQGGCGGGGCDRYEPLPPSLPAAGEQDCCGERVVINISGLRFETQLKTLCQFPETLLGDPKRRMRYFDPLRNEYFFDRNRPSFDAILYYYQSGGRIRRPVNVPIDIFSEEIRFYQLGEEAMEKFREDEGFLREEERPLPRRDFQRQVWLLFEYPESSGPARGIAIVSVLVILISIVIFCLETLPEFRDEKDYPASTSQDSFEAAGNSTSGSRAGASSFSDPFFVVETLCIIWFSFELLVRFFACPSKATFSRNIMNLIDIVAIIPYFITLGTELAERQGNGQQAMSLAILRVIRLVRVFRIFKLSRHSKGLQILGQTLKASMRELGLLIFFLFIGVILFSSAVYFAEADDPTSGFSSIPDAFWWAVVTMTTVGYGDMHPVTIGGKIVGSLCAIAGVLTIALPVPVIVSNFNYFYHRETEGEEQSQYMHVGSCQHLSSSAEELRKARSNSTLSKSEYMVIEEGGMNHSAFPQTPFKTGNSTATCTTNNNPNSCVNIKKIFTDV

SMILES | IC50 [1] [nM] | IC50 [2] [nM] | IC50 [3] [nM]
CC[C@H](C)[C@@H]1NC(=O)[C@@H](NC(=O)[C@H](CO)NC(=O)[C@@H](N)CCCNC(=N)N)CSSC[C@@H](C(=O)O)NC(=O)[C@H]([C@@H](C)O)NC(=O)CNC(=O)[C@@H]2CSSC[C@@H]3NC(=O)[C@H](Cc4cccc5ccccc45)NC(=O)[C@H](Cc4ccccc4)NC(=O)[C@H](C)NC(=O)[C@H]([C@@H](C)O)NC(=O)[C@H](CSSC[C@H](NC(=O)[C@H](Cc4ccccc4)NC(=O)[C@H](CO)NC(=O)[C@H](CC(C)C)NC(=O)[C@H](CCCNC(=N)N)NC(=O)[C@H](Cc4ccc(O)cc4)NC(=O)[C@H](CCCCN)NC(=O)[C@H](CCSC)NC(=O)[C@H](CO)NC(=O)[C@H](Cc4c[nH]cn4)NC(=O)[C@H](CCCCN)NC3=O)C(=O)N[C@@H](CCCNC(=N)N)C(=O)N[C@@H](CCCCN)C(=O)N[C@@H]([C@@H](C)O)C(=O)N2)NC(=O)[C@H](CCCNC(=N)N)NC(=O)[C@H](CO)NC(=O)[C@H](CCCCN)NC(=O)[C@@H]2CCCN2C(=O)[C@H]([C@@H](C)CC)NC(=O)[C@H]([C@@H](C)O)NC(=O)[C@H](CC(=O)O)NC1=O [[1-Nal16]ShK] | 9.55 | 0.699 | 28.9
CC[C@H](C)[C@@H]1NC(=O)[C@@H](NC(=O)[C@H](CO)NC(=O)[C@@H](N)CCCNC(=N)N)CSSC[C@@H](C(=O)O)NC(=O)[C@H]([C@@H](C)O)NC(=O)CNC(=O)[C@@H]2CSSC[C@@H]3NC(=O)[C@H](CCC(N)=O)NC(=O)[C@H](Cc4ccccc4)NC(=O)[C@H](C)NC(=O)[C@H]([C@@H](C)O)NC(=O)[C@H](CSSC[C@H](NC(=O)[C@H](Cc4ccccc4)NC(=O)[C@H](CO)NC(=O)[C@H](CC(C)C)NC(=O)[C@H](CCCNC(=N)N)NC(=O)[C@H](Cc4ccc(O)cc4)NC(=O)[C@H](CCCCN)NC(=O)[C@H](CCSC)NC(=O)[C@H](CO)NC(=O)[C@H](Cc4c[nH]cn4)NC(=O)[C@H](Cc4cccc5ccccc45)NC3=O)C(=O)N[C@@H](CCCNC(=N)N)C(=O)N[C@@H](CCCCN)C(=O)N[C@@H]([C@@H](C)O)C(=O)N2)NC(=O)[C@H](CCCNC(=N)N)NC(=O)[C@H](CO)NC(=O)[C@H](CCCCN)NC(=O)[C@@H]2CCCN2C(=O)[C@H]([C@@H](C)CC)NC(=O)[C@H]([C@@H](C)O)NC(=O)[C@H](CC(=O)O)NC1=O [[1-Nal18]ShK] | 0.375 | 0.471 | 0.419
CC[C@H](C)[C@@H]1NC(=O)[C@@H](NC(=O)[C@H](CO)NC(=O)[C@@H](N)CCCNC(=N)N)CSSC[C@@H](C(=O)O)NC(=O)[C@H]([C@@H](C)O)NC(=O)CNC(=O)[C@@H]2CSSC[C@@H]3NC(=O)[C@H](CCC(N)=O)NC(=O)[C@H](Cc4ccccc4)NC(=O)[C@H](C)NC(=O)[C@H]([C@@H](C)O)NC(=O)[C@H](CSSC[C@H](NC(=O)[C@H](Cc4ccccc4)NC(=O)[C@H](CO)NC(=O)[C@H](CC(C)C)NC(=O)[C@H](CCCNC(=N)N)NC(=O)[C@H](Cc4ccc(O)cc4)NC(=O)[C@H](CCCCN)NC(=O)[C@H](CCSC)NC(=O)[C@H](CO)NC(=O)[C@H](Cc4cccc5ccccc45)NC(=O)[C@H](CCCCN)NC3=O)C(=O)N[C@@H](CCCNC(=N)N)C(=O)N[C@@H](CCCCN)C(=O)N[C@@H]([C@@H](C)O)C(=O)N2)NC(=O)[C@H](CCCNC(=N)N)NC(=O)[C@H](CO)NC(=O)[C@H](CCCCN)NC(=O)[C@@H]2CCCN2C(=O)[C@H]([C@@H](C)CC)NC(=O)[C@H]([C@@H](C)O)NC(=O)[C@H](CC(=O)O)NC1=O [[1-Nal19]ShK] | 0.255 | 0.277 | 0.153
CC[C@H](C)[C@@H]1NC(=O)[C@@H](NC(=O)[C@H](CO)NC(=O)[C@@H](N)CCCNC(=N)N)CSSC[C@@H](C(=O)O)NC(=O)[C@H]([C@@H](C)O)NC(=O)CNC(=O)[C@@H]2CSSC[C@@H]3NC(=O)[C@H](CCC(N)=O)NC(=O)[C@H](Cc4ccccc4)NC(=O)[C@H](C)NC(=O)[C@H]([C@@H](C)O)NC(=O)[C@H](CSSC[C@H](NC(=O)[C@H](Cc4ccccc4)NC(=O)[C@H](CO)NC(=O)[C@H](CC(C)C)NC(=O)[C@H](CCCNC(=N)N)NC(=O)[C@H](Cc4ccc(O)cc4)NC(=O)[C@H](CCCCN)NC(=O)[C@H](Cc4cccc5ccccc45)NC(=O)[C@H](CO)NC(=O)[C@H](Cc4c[nH]cn4)NC(=O)[C@H](CCCCN)NC3=O)C(=O)N[C@@H](CCCNC(=N)N)C(=O)N[C@@H](CCCCN)C(=O)N[C@@H]([C@@H](C)O)C(=O)N2)NC(=O)[C@H](CCCNC(=N)N)NC(=O)[C@H](CO)NC(=O)[C@H](CCCCN)NC(=O)[C@@H]2CCCN2C(=O)[C@H]([C@@H](C)CC)NC(=O)[C@H]([C@@H](C)O)NC(=O)[C@H](CC(=O)O)NC1=O [[1-Nal21]ShK] | 8.13 | 0.669 | 6.59
CC[C@H](C)[C@@H]1NC(=O)[C@@H](NC(=O)[C@H](CO)NC(=O)[C@@H](N)CCCNC(=N)N)CSSC[C@@H](C(=O)O)NC(=O)[C@H]([C@@H](C)O)NC(=O)CNC(=O)[C@@H]2CSSC[C@@H]3NC(=O)[C@H](CCC(N)=O)NC(=O)[C@H](Cc4ccccc4)NC(=O)[C@H](C)NC(=O)[C@H]([C@@H](C)O)NC(=O)[C@H](CSSC[C@H](NC(=O)[C@H](Cc4ccccc4)NC(=O)[C@H](CO)NC(=O)[C@H](Cc4cccc5ccccc45)NC(=O)[C@H](CCCNC(=N)N)NC(=O)[C@H](Cc4ccc(O)cc4)NC(=O)[C@H](CCCCN)NC(=O)[C@H](CCSC)NC(=O)[C@H](CO)NC(=O)[C@H](Cc4c[nH]cn4)NC(=O)[C@H](CCCCN)NC3=O)C(=O)N[C@@H](CCCNC(=N)N)C(=O)N[C@@H](CCCCN)C(=O)N[C@@H]([C@@H](C)O)C(=O)N2)NC(=O)[C@H](CCCNC(=N)N)NC(=O)[C@H](CO)NC(=O)[C@H](CCCCN)NC(=O)[C@@H]2CCCN2C(=O)[C@H]([C@@H](C)CC)NC(=O)[C@H]([C@@H](C)O)NC(=O)[C@H](CC(=O)O)NC1=O [[1-Nal25]ShK] | 0.084 | 0.106 | 0.061
CC[C@H](C)[C@@H]1NC(=O)[C@@H](NC(=O)[C@H](CO)NC(=O)[C@@H](N)CCCNC(=N)N)CSSC[C@@H](C(=O)O)NC(=O)[C@H]([C@@H](C)O)NC(=O)CNC(=O)[C@@H]2CSSC[C@@H]3NC(=O)[C@H](CCC(N)=O)NC(=O)[C@H](Cc4ccccc4)NC(=O)[C@H](C)NC(=O)[C@H]([C@@H](C)O)NC(=O)[C@H](CSSC[C@H](NC(=O)[C@H](Cc4cccc5ccccc45)NC(=O)[C@H](CO)NC(=O)[C@H](CC(C)C)NC(=O)[C@H](CCCNC(=N)N)NC(=O)[C@H](Cc4ccc(O)cc4)NC(=O)[C@H](CCCCN)NC(=O)[C@H](CCSC)NC(=O)[C@H](CO)NC(=O)[C@H](Cc4c[nH]cn4)NC(=O)[C@H](CCCCN)NC3=O)C(=O)N[C@@H](CCCNC(=N)N)C(=O)N[C@@H](CCCCN)C(=O)N[C@@H]([C@@H](C)O)C(=O)N2)NC(=O)[C@H](CCCNC(=N)N)NC(=O)[C@H](CO)NC(=O)[C@H](CCCCN)NC(=O)[C@@H]2CCCN2C(=O)[C@H]([C@@H](C)CC)NC(=O)[C@H]([C@@H](C)O)NC(=O)[C@H](CC(=O)O)NC1=O [[1-Nal27]ShK] | 2.84 | 0.144 | 1.07
CC[C@H](C)[C@@H]1NC(=O)[C@@H](NC(=O)[C@H](CO)NC(=O)[C@@H](N)CCCNC(=N)N)CSSC[C@@H](C(=O)O)NC(=O)[C@H]([C@@H](C)O)NC(=O)CNC(=O)[C@@H]2CSSC[C@@H]3NC(=O)[C@H](CCC(N)=O)NC(=O)[C@H](Cc4ccccc4)NC(=O)[C@H](C)NC(=O)[C@H]([C@@H](C)O)NC(=O)[C@H](CSSC[C@H](NC(=O)[C@H](Cc4ccccc4)NC(=O)[C@H](CO)NC(=O)[C@H](CC(C)C)NC(=O)[C@H](CCCNC(=N)N)NC(=O)[C@H](Cc4ccc(O)cc4)NC(=O)[C@H](CCCCN)NC(=O)[C@H](CCSC)NC(=O)[C@H](CO)NC(=O)[C@H](Cc4c[nH]cn4)NC(=O)[C@H](CCCCN)NC3=O)C(=O)N[C@@H](Cc3cccc4ccccc34)C(=O)N[C@@H](CCCCN)C(=O)N[C@@H]([C@@H](C)O)C(=O)N2)NC(=O)[C@H](CCCNC(=N)N)NC(=O)[C@H](CO)NC(=O)[C@H](CCCCN)NC(=O)[C@@H]2CCCN2C(=O)[C@H]([C@@H](C)CC)NC(=O)[C@H]([C@@H](C)O)NC(=O)[C@H](CC(=O)O)NC1=O [[1-Nal29]ShK] | 8.08 | 3.3 | 4.72
CC[C@H](C)[C@@H]1NC(=O)[C@@H](NC(=O)[C@H](CO)NC(=O)[C@H](C)N)CSSC[C@@H](C(=O)O)NC(=O)[C@H]([C@@H](C)O)NC(=O)CNC(=O)[C@@H]2CSSC[C@@H]3NC(=O)[C@H](CCC(N)=O)NC(=O)[C@H](Cc4ccccc4)NC(=O)[C@H](C)NC(=O)[C@H]([C@@H](C)O)NC(=O)[C@H](CSSC[C@H](NC(=O)[C@H](Cc4ccccc4)NC(=O)[C@H](CO)NC(=O)[C@H](CC(C)C)NC(=O)[C@H](CCCNC(=N)N)NC(=O)[C@H](Cc4ccc(O)cc4)NC(=O)[C@H](CCCCN)NC(=O)[C@H](CCSC)NC(=O)[C@H](CO)NC(=O)[C@H](Cc4c[nH]cn4)NC(=O)[C@H](CCCCN)NC3=O)C(=O)N[C@@H](CCCNC(=N)N)C(=O)N[C@@H](CCCCN)C(=O)N[C@@H]([C@@H](C)O)C(=O)N2)NC(=O)[C@H](CCCNC(=N)N)NC(=O)[C@H](CO)NC(=O)[C@H](CCCCN)NC(=O)[C@@H]2CCCN2C(=O)[C@H]([C@@H](C)CC)NC(=O)[C@H]([C@@H](C)O)NC(=O)[C@H](CC(=O)O)NC1=O [[Ala1]ShK] | 0.102 | 0.168 | 0.073
CC[C@H](C)[C@@H]1NC(=O)[C@@H](NC(=O)[C@H](CO)NC(=O)[C@@H](N)CCCNC(=N)N)CSSC[C@@H](C(=O)O)NC(=O)[C@H]([C@@H](C)O)NC(=O)CNC(=O)[C@@H]2CSSC[C@@H]3NC(=O)[C@H](CCC(N)=O)NC(=O)[C@H](Cc4ccccc4)NC(=O)[C@H](C)NC(=O)[C@H]([C@@H](C)O)NC(=O)[C@H](CSSC[C@H](NC(=O)[C@H](Cc4ccccc4)NC(=O)[C@H](CO)NC(=O)[C@H](CC(C)C)NC(=O)[C@H](CCCNC(=N)N)NC(=O)[C@H](Cc4ccc(O)cc4)NC(=O)[C@H](CCCCN)NC(=O)[C@H](CCSC)NC(=O)[C@H](CO)NC(=O)[C@H](Cc4c[nH]cn4)NC(=O)[C@H](CCCCN)NC3=O)C(=O)N[C@@H](CCCNC(=N)N)C(=O)N[C@@H](CCCCN)C(=O)N[C@@H]([C@@H](C)O)C(=O)N2)NC(=O)[C@H](CCCNC(=N)N)NC(=O)[C@H](CO)NC(=O)[C@H](CCCCN)NC(=O)[C@@H]2CCCN2C(=O)[C@H](C)NC(=O)[C@H]([C@@H](C)O)NC(=O)[C@H](CC(=O)O)NC1=O [[Ala7]ShK] | 2.22 | 0.188 | 0.886
